Reference: EPA's ToxValDB 9.5 (doi:10.2903/j.efsa.2005.29r)
“And” between values parts separate entries of the source, which are not always exact repeats. Equal entries are not always repeated.

Columns and labels:
[1] = test system: Aphidius rhopalosiphi; conditions: not reported; mortality
[2] = test system: Apis mellifera; conditions: acute, mortality
[3] = test system: Canidae; conditions: subchronic; duration: 90 days; oral; Dog Other; clinical signs
[4] = test system: Coturnix coturnix; conditions: oral
[5] = test system: Daphnia magna; conditions: chronic/long-term
[6] = test system: Oncorhynchus mykiss; conditions: for NOEC: chronic/long-term
[7] = test system: Oryctolagus sp.; conditions: developmental; development
[8] = test system: Rattus norvegicus
[9] = test system: Tagia sp.
[10] = test system: Typhlodromus pyri; test: LR50; higher = less toxic; conditions: chronic/long-term; duration: 7 days; mortality

## Cc1ccc(N(SC(F)(Cl)Cl)S(=O)(=O)N(C)C)cc1 [Tolylfluanid]
[1]
  LEL: 2500 g/ha
[2]; duration: 48 hours, dermal
  LD50: > 196 µg/piece
[2]; oral, unspecified
  LD50: > 197 µg/piece
[3]
  NOAEL: 33 mg/kg-day
[4]; acute, duration: 5 days, diet, mortality
  LC50: > 5000 mg/kg
[4]; acute, mortality
  LD50: > 2000 mg/kg
[4]; reproduction developmental, duration: 21 weeks, diet
  NOEC: 791 mg/kg-day
[5]; duration: 40 days
  NOAEC: 180 µg/L
[5]; duration: 51 days
  NOAEC: 99 µg/L
[6]; acute, duration: 96 hours, mortality
  LC50: 0.045 mg/L and 0.016 mg/L
[6]; duration: 28 days
  NOEC: 44 µg/L
[6]; duration: 35 days
  NOEC: 60 µg/L
[7]
  NOAEL: 25 mg/kg-day
[8]; acute, oral, mortality
  LD50: > 5000 mg/kg
[8]; reproduction developmental, M, body weight
  NOAEL: 12 mg/kg-day
[8]; short-term, duration: 28 days, oral, diet
  NOEC: 1500 mg/kg-day
[9]; acute, duration: 14 days, mortality
  LC50: > 1000 mg/kg
[9]; chronic/long-term, reproduction
  NOEC: 24000 g/ha
[10]
  LR50: 247 g/ha
